Values joined by “and” are separate entries in the source; they are usually repeats but may differ in a detail not shown here. Identical values can stand only once.
Tested on: patients with prior myocardial infarction (CARE study)
Assay: CARE aligned analysis (prospective and case/control design, white males): association of genotypes with pravastatin efficacy (Tables 13, 15)
Format: in vivo, human
Conditions: for Pravastatin vs placebo odds ratio, 1 rare allele / Pravastatin vs placebo odds ratio, 2 rare alleles / 2 rare alleles n/total (%), pravastatin patients / Pravastatin vs placebo odds ratio, 0 rare alleles: CARE, F MI/SD/NF MI; for Pravastatin Patients (%) / Pravastatin Patients n/total: F&NF MI, WM
Protocol: The data presented in Table 8 based on an association of genotypes with pravastatin efficacy of the CARE samples were further analyzed and presented in Table 13. The further analysis was performed to align the data obtained from the analysis of the CARE samples, which was a prospective study, to the analysis of the WOSCOP samples, which was a case/control study. Table 13 also presents an analysis of the association of genotypes with pravastatin efficacy in the WOSCOPs samples. Relative to the analysis performed on the data presented in Table 8, there are two significant differences to determine if the SNP influenced pravastatin efficacy. Data obtained from the CARE samples were separated by study design into two groups, those in the prospective study design group and those in the case/control study design group. The original care study contained 16 protocol defined cardiovascular disease defined endpoints and 150 other phenotypes. […] The control groups used to compare the data were also divided into two groups, the “all possible” control group and the “cleaner” control group. […] Because the participants in the WOSCOPs trial were all white males, only data obtained from white males in the CARE study were analysed. Data from the “all possible” and “cleaner” controls were compared to data obtained from the cases in the prospective study design while only data from “cleaner” controls were compared to cases in the case/control study design. The data from the case/control cohorts were analysed using conditional logistic regression (as opposed to logistic regression used for the original anaylsis).
The anaylsis was refined as described for both Tables 13 and 14.

[1] = IL9 hCV3275199, 0 Rare Alleles, CARE Case/Control, All Possible controls
[2] = IL9 hCV3275199, 0 Rare Alleles, CARE Case/Control, Cleaner controls
[3] = IL9 hCV3275199, 0 Rare Alleles, CARE Prospective, All Possible controls
[4] = IL9 hCV3275199, 0 Rare Alleles, CARE Prospective, Cleaner controls
[5] = IL9 hCV3275199, 1 Rare Allele, CARE Case/Control, All Possible controls
[6] = IL9 hCV3275199, 1 Rare Allele, CARE Case/Control, Cleaner controls
[7] = IL9 hCV3275199, 1 Rare Allele, CARE Prospective, All Possible controls
[8] = IL9 hCV3275199, 1 Rare Allele, CARE Prospective, Cleaner controls
[9] = ITGA4 hCV7618856, 0 Rare Alleles, CARE Case/Control, Cleaner controls
[10] = ITGA4 hCV7618856, 1 Rare Allele, CARE Case/Control, All Possible controls
[11] = ITGA4 hCV7618856, 1 Rare Allele, CARE Case/Control, Cleaner controls
[12] = ITGA4 hCV7618856, 1 Rare Allele, CARE Prospective, All Possible controls
[13] = KDR hCV16192174, 0 Rare Alleles, CARE Case/Control, All Possible controls
[14] = KDR hCV16192174, 0 Rare Alleles, CARE Case/Control, Cleaner controls
[15] = KDR hCV16192174, 0 Rare Alleles, CARE Prospective, All Possible controls
[16] = KDR hCV16192174, 0 Rare Alleles, CARE Prospective, Cleaner controls
[17] = KDR hCV16192174, 1 Rare Allele, CARE Case/Control, All Possible controls
[18] = KDR hCV16192174, 1 Rare Allele, CARE Case/Control, Cleaner controls
[19] = KDR hCV16192174, 1 Rare Allele, CARE Prospective, All Possible controls
[20] = KDR hCV16192174, 1 Rare Allele, CARE Prospective, Cleaner controls
[21] = KDR hCV22271999, 0 Rare Alleles, CARE Case/Control, All Possible controls
[22] = KDR hCV22271999, 0 Rare Alleles, CARE Case/Control, Cleaner controls
[23] = KDR hCV22271999, 0 Rare Alleles, CARE Prospective, All Possible controls
[24] = KDR hCV22271999, 0 Rare Alleles, CARE Prospective, Cleaner controls
[25] = KDR hCV22271999, 1 Rare Allele, CARE Case/Control, All Possible controls
[26] = KDR hCV22271999, 1 Rare Allele, CARE Case/Control, Cleaner controls
[27] = KDR hCV22271999, 1 Rare Allele, CARE Prospective, All Possible controls
[28] = KDR hCV22271999, 1 Rare Allele, CARE Prospective, Cleaner controls

Compound: CC[C@H](C)C(=O)O[C@H]1C[C@H](O)C=C2C=C[C@H](C)[C@H](CC[C@@H](O)C[C@@H](O)CC(=O)O)[C@H]21 [pravastatin]
- Pravastatin vs placebo odds ratio, 1 rare allele (IL4R hCV2769554, Case/Control): 0.74 and 0.64
- Pravastatin vs placebo odds ratio, 2 rare alleles (IL4R hCV2769554, Case/Control): 1.66 and 1.52
- Pravastatin Patients (%) [1]: (12.4%)
- Pravastatin Patients n/total [1]: 111/896
- Pravastatin Patients (%) [2]: (17.5%)
- Pravastatin Patients n/total [2]: 111/633
- Pravastatin Patients (%) [3]: (12.2%)
- Pravastatin Patients n/total [3]: 111/911
- Pravastatin Patients (%) [4]: (17.2%)
- Pravastatin Patients n/total [4]: 111/644
- Pravastatin Patients (%) [5]: (5.3%)
- Pravastatin Patients n/total [5]: 15/283
- Pravastatin Patients (%) [6]: (8.2%)
- Pravastatin Patients n/total [6]: 15/184
- Pravastatin Patients (%) [7]: (5.2%)
- Pravastatin Patients n/total [7]: 15/290
- Pravastatin Patients (%) [8]: (8.0%)
- Pravastatin Patients n/total [8]: 15/187
- Pravastatin Patients (%) (ITGA4 hCV7618856, 0 Rare Alleles, CARE Case/Control, All Possible controls): (10.1%)
- Pravastatin Patients (%) [9]: (14.7%)
- Pravastatin Patients n/total [9]: 120/817
- Pravastatin Patients (%) (ITGA4 hCV7618856, 0 Rare Alleles, CARE Prospective, All Possible controls): (10.0%)
- Pravastatin Patients (%) [10]: (25.0%)
- Pravastatin Patients n/total [10]: 5/20
- Pravastatin Patients (%) [11]: (31.3%)
- Pravastatin Patients n/total [11]: 5/16
- Pravastatin Patients (%) [12]: (23.8%)
- Pravastatin Patients n/total [12]: 5/21
- 2 rare alleles n/total (%), pravastatin patients (ITGAE hCV1243283, Case/Control): (8.0%)
- Pravastatin vs placebo odds ratio, 0 rare alleles (ITGAE hCV1243283, Case/Control): 0.79
- Pravastatin vs placebo odds ratio, 1 rare allele (ITGAE hCV1243283, Case/Control): 0.84
- Pravastatin vs placebo odds ratio, 2 rare alleles (ITGAE hCV1243283, Case/Control): 0.24
- Pravastatin Patients (%) [13]: (9.0%)
- Pravastatin Patients n/total [13]: 87/971
- Pravastatin Patients (%) [14]: (13.1%)
- Pravastatin Patients n/total [14]: 87/666
- Pravastatin Patients (%) [15]: (8.8%)
- Pravastatin Patients n/total [15]: 87/985
- Pravastatin Patients (%) [16]: (12.9%)
- Pravastatin Patients n/total [16]: 87/675
- Pravastatin Patients (%) [17]: (17.2%)
- Pravastatin Patients n/total [17]: 39/227
- Pravastatin Patients (%) [18]: (23.9%)
- Pravastatin Patients n/total [18]: 39/163
- Pravastatin Patients (%) [19]: (16.6%)
- Pravastatin Patients n/total [19]: 39/235
- Pravastatin Patients (%) [20]: (23.2%)
- Pravastatin Patients n/total [20]: 39/168
- Pravastatin vs placebo odds ratio, 0 rare alleles (KDR hCV16192174, Case/Control): 0.66 and 0.58
- Pravastatin vs placebo odds ratio, 1 rare allele (KDR hCV16192174, Case/Control): 1.68
- Pravastatin vs placebo odds ratio, 2 rare alleles (KDR hCV16192174, Case/Control): 0.41 and 0.35
- 2 rare alleles n/total (%), pravastatin patients (KDR hCV16192174, Prospective): (10.0%)
- Pravastatin vs placebo odds ratio, 0 rare alleles (KDR hCV16192174, Prospective): 0.61
- Pravastatin vs placebo odds ratio, 1 rare allele (KDR hCV16192174, Prospective): 1.41
- Pravastatin vs placebo odds ratio, 2 rare alleles (KDR hCV16192174, Prospective): 0.30
- Pravastatin Patients (%) [21]: (9.0%)
- Pravastatin Patients n/total [21]: 87/969
- Pravastatin Patients (%) [22]: (13.1%)
- Pravastatin Patients n/total [22]: 87/665
- Pravastatin Patients (%) [23]: (8.9%)
- Pravastatin Patients n/total [23]: 87/983
- Pravastatin Patients (%) [24]: (12.9%)
- Pravastatin Patients n/total [24]: 87/674
- Pravastatin Patients (%) [25]: (17.3%)
- Pravastatin Patients n/total [25]: 39/226
- Pravastatin Patients (%) [26]: (24.1%)
- Pravastatin Patients n/total [26]: 39/162
- Pravastatin Patients (%) [27]: (16.7%)
- Pravastatin Patients n/total [27]: 39/234
- Pravastatin Patients (%) [28]: (23.4%)
- Pravastatin Patients n/total [28]: 39/167

Reference: patent US9932637B2, “Genetic polymorphisms associated with cardiovascular disorders and drug response, methods of detection and uses thereof” (CELERA CORPORATION, priority 2003, dated 2018)
